This note sets out measurements from ChEMBL document CHEMBL2169844, “6β-N-heterocyclic substituted naltrexamine derivative NAP as a potential lead to develop peripheral mu opioid receptor selective antagonists” (Bioorg Med Chem Lett, 2012).

Series [1] has as its system Mus musculus. In words: Increase in gastrointestinal motility in sc dosed morphine-pelleted mouse administered 20 mins before forced charcoal meal measured after 30 mins. It is filed as functional.
In series [2] the test system is Mus musculus. Briefly: Increase in gastrointestinal motility in morphine-pelleted mouse at 0.003 to 0.03 mg/kg, sc administered 20 mins before forced charcoal meal measured after 30 mins. It counts as functional, organism-based.
For series [3], the target named is Mu-type opioid receptor (Rattus norvegicus) (UniProt P33535). In words: Partial agonist activity at mu opioid receptor in rat thalamus assessed as stimulation of [35S]-GTP[gammaS]-binding relative to DAMGO. It counts as functional, tissue-based. On the technique in general: GTPγS resists hydrolysis and so accumulates on activated G proteins.
Sequence of Mu-type opioid receptor (Rattus norvegicus) (P33535 whole entry): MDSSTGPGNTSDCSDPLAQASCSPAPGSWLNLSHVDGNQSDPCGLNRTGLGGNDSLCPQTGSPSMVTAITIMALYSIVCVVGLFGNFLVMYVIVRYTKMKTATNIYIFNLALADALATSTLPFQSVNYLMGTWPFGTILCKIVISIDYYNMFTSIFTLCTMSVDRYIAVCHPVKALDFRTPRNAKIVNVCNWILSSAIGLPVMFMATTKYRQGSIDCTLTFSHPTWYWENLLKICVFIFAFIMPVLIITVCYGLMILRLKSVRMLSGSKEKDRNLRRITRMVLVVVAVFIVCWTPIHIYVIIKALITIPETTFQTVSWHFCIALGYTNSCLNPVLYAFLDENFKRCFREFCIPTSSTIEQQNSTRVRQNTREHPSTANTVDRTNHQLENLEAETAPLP
Series [4] deals with Mus musculus. Briefly: Increase in gastrointestinal motility in morphine-naive mouse assessed as decrease in stool weight at 30 mg/kg, sc administered 20 mins before forced charcoal meal measured after 30 mins. It is filed as functional, organism-based. Further details: dose 30 mg/kg.
Series [5] concerns Mus musculus. In words: Increase in gastrointestinal motility in morphine-pelleted mouse assessed as decrease in stool weight at 0.3 to 1 mg/kg, sc administered 20 mins before forced charcoal meal measured after 30 mins. It is filed as functional, organism-based.
The species entered for series [6] is Mus musculus. Briefly: Ratio of naltrexone to compound for toxicity in mouse assessed as reduced wet dog shakes. It counts as organism-based. The note with it: in vivo.
Series [7] deals with Mus musculus. Briefly: Increase in gastrointestinal motility in morphine-pelleted mouse at 1 mg/kg, sc administered 20 mins before forced charcoal meal measured after 30 mins. It is filed as functional, organism-based. More on the design: dose 1 mg/kg.
The species entered for series [8] is Mus musculus. Briefly: Ratio of naloxone to compound for toxicity in mouse assessed as reduced wet dog shakes. It counts as organism-based. The note with it: in vivo.
In series [9] the test system is Mus musculus. In words: Increase in gastrointestinal motility in morphine-pelleted mouse assessed as increase in stool weight at 0.3 to 1 mg/kg, sc administered 20 mins before forced charcoal meal measured after 30 mins. It is filed as functional, organism-based.
In series [10] the test system is Mus musculus. In words: Increase in gastrointestinal motility in morphine-naive mouse assessed as decrease in stool weight at 0.3 mg/kg, sc administered 20 mins before forced charcoal meal measured after 30 mins. More on the design: dose 0.3 mg/kg. It counts as functional, organism-based.
The subject of series [11] is Mus musculus. Briefly: Increase in gastrointestinal motility in morphine-naive mouse assessed as decrease in stool weight at 3 mg/kg, sc administered 20 mins before forced charcoal meal measured after 30 mins. More on the design: dose 3 mg/kg. It is filed as functional, organism-based.
Series [12] has as its system Mus musculus. In words: Toxicity in mouse assessed as wet dog shakes at 50 mg/kg, iv followed by morphine at 32 mg/kg, sc. The note with it: in vivo. It is filed as organism-based.
Series [13] relates to Mus musculus. In words: Ratio of ED50 for MNTX to compound ED50 for morphine-pelleted mouse administered 20 mins before forced charcoal meal measured after 30 mins. It counts as functional.
Series [14] deals with Mus musculus. Briefly: Increase in gastrointestinal motility in morphine-pelleted mouse at 3 mg/kg, sc administered 20 mins before forced charcoal meal measured after 30 mins. It counts as functional, organism-based. More on the design: dose 3 mg/kg.
Series [15] relates to Mus musculus. Briefly: Toxicity in mouse assessed as high locomotory activity measured as jumping up to 50 mg/kg, iv followed by morphine at 32 mg/kg, sc. It counts as organism-based. The note with it: in vivo.
The species entered for series [16] is Mus musculus. Briefly: Ratio of ED50 for increase in gastrointestinal motility in morphine-pelleted mouse to ED50 for toxicity in mouse assessed as lower locomotory activity. It is filed as functional.
The test system of series [17] is Mus musculus. Briefly: Toxicity in morphine-pelleted mouse assessed as diarrhea at 0.3 mg/kg, sc. It counts as organism-based. More on the design: dose 0.3 mg/kg, route subcutaneous. The note with it: in vivo.
The subject of series [18] is Mus musculus. Briefly: Toxicity in mouse assessed as lower locomotory activity measured as walking at 32 mg/kg, iv followed by morphine at 32 mg/kg, sc. It counts as organism-based. The note with it: in vivo.
Series [19] has as its system Mus musculus. Briefly: Increase in gastrointestinal motility in morphine-pelleted mouse at 0.3 mg/kg, sc administered 20 mins before forced charcoal meal measured after 30 mins. It counts as functional, organism-based. Further details: dose 0.3 mg/kg.
For series [20], the system named is Mus musculus. Briefly: Increase in gastrointestinal motility in morphine-pelleted mouse assessed as decrease in stool weight at 0.3 to 3 mg/kg, sc administered 20 mins before forced charcoal meal measured after 30 mins. It is filed as functional, organism-based.

Activity calls are given as the source filed them. No cut-off for these calls is given here. Where only a bound is given, the exact number is not on record here.

`C[N+]1(CC2CC2)CC[C@]23c4c5ccc(O)c4O[C@H]2C(=O)CC[C@@]3(O)[C@H]1C5` (stereo partly specified) [METHYLNALTREXONE] returned an ED50 in the series on Mus musculus [1] of 2.5 mg/kg.
For `O=C(N[C@@H]1CC[C@@]2(O)[C@H]3Cc4ccc(O)c5c4[C@@]2(CCN3CC2CC2)[C@H]1O5)c1ccncc1`, the result in the series on Mus musculus [2], in the series with Mus musculus [4], in the series with Mus musculus [9], in the series with Mus musculus [10] and in the series on Mus musculus [20] was inactive. Moreover, the Emax in series [3] amounted to 16.7%. The result in the series on Mus musculus [5], in the series with Mus musculus [7], in the series with Mus musculus [11], in the series with Mus musculus [14] and in the series with Mus musculus [19] was Active. Further, the Ratio in the series listed under Mus musculus [6] and in the series filed under Mus musculus [8] was 50 throughout. Besides, the ED50 in the series with Mus musculus [1] amounted to 0.0088 mg/kg. The Activity result with Mus musculus [12], with Mus musculus [15], in the series on Mus musculus [17] and with Mus musculus [18] was “Toxic” each time. Moreover, the “Ratio ED50” value in the series on Mus musculus [13] was 300; in the series filed under Mus musculus [16], above 3600.

Broadly, the ED50 is the dose that gives a 50% effect, or the effect in half of the subjects. The Emax is the maximal effect, on the per cent scale that the assay sets.
